Results as given in patent US20230002359A1, “PESTICIDALLY ACTIVE FUSED BICYCLIC HETEROAROMATIC COMPOUNDS” (priority 2019, published 2023).

Key:
Format in all cases: in vivo
[1] = tested on: Spodoptera littoralis (Egyptian Cotton Leaf Worm); experiment: Example B7: Spodoptera littoralis (Egyptian cotton leaf worm), cotton leaf discs sprayed, L1 larvae; settings: foliar, 72 h, application rate of 200 ppm, 3 days after infestation, L1 larvae, read-out: control in at least one of the three categories (mortality, anti-feedant effect, or growth inhibition)
Method: Cotton leaf discs were placed onto agar in 24-well microtiter plates and sprayed with aqueous test solutions prepared from 10′000 ppm DMSO stock solutions. After drying the leaf discs were infested with five L1 larvae. The samples were assessed for mortality, anti-feeding effect, and growth inhibition in comparison to untreated samples 3 days after infestation. Control of Spodoptera littoralis by a test sample is given when at least one of the categories mortality, anti-feedant effect, and growth inhibition is higher than the untreated sample.

[2] = tested on: Plutella xylostella (Diamond Back Moth); experiment: Example B4: Plutella xylostella (diamond back moth), artificial diet, eggs, 24-well; settings: 192 h, application rate of 200 ppm, 8 days after infestation, eggs, read-out: control in at least one of the two categories (mortality or growth inhibition)
Method: 24-well microtiter plates with artificial diet were treated with aqueous test solutions prepared from 10′000 ppm DMSO stock solutions by pipetting. After drying, Plutella eggs were pipetted through a plastic stencil onto a gel blotting paper and the plate was closed with it. The samples were assessed for mortality and growth inhibition in comparison to untreated samples 8 days after infestation.

[3] = tested on: Chilo suppressalis (Striped Rice Stemborer); experiment: Example B3: Chilo suppressalis (striped rice stemborer), artificial diet, L2 larvae; settings: 144 h, application rate of 200 ppm, 6 days after infestation, L2 larvae, read-out: control in at least one of the three categories (mortality, anti-feedant effect, or growth inhibition)
How it was run: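 First, artificial diet was treated with aqueous solutions prepared from 10'000 ppm DMSO stocks; second, after drying, L2 larvae (6-8/well) were added; third, effects were assessed at 6 days against untreated controls, counting control when any of three categories was higher.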

[4] = tested on: Diabrotica Balteata (Corn Root Worm); experiment: Example B1: Diabrotica balteata (corn root worm), maize sprouts sprayed, L2 larvae; settings: 96 h, application rate of 200 ppm, 4 days after infestation, L2 larvae, read-out: control in at least one of the two categories (mortality or growth inhibition)
How it was run: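 Larvae at L2 stage, 6 to 10 per well, feed on dried, spray-treated maize sprouts set on agar. Evaluation after 4 days compares mortality and growth inhibition with untreated samples.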

CC(c1nccnc1-c1ncccn1)N(C)c1ncnc2c(Br)cc(C(F)(F)F)cc12 (stereo not shown) [P.97, 8-bromo-N-methyl-N-[1-(3-pyrimidin-2-ylpyrazin-2-yl)ethyl]-6-(trifluoromethyl)quinazolin-4-amine]
≥ 80%: percent control (mortality, anti-feedant effect or growth inhibition) at 200 ppm [1] | percent control (mortality or growth inhibition) at 200 ppm [2] | percent control (mortality, anti-feedant effect or growth inhibition) at 200 ppm [3] | percent control (mortality or growth inhibition) at 200 ppm [4]

C[C@H](Nc1ccnc2c(C(F)(F)F)cc(Br)cc12)c1ncnn1-c1ccc(C#N)cn1 [P.252, 6-[5-[(1S)-1-[[6-bromo-8-(trifluoromethyl)-4-quinolyl]amino]ethyl]-1,2,4-triazol-1-yl]pyridine-3-carbonitrile]
≥ 80%: percent control (mortality, anti-feedant effect or growth inhibition) at 200 ppm [1] | percent control (mortality or growth inhibition) at 200 ppm [2] | percent control (mortality, anti-feedant effect or growth inhibition) at 200 ppm [3] | percent control (mortality or growth inhibition) at 200 ppm [4]

C[C@@H](c1ncnn1-c1ccc(C#N)cn1)N(C)c1ncnc2c(Cl)cc(C(F)(F)F)cc12 [P.19, 6-[5-[(1S)-1-[[8-chloro-6-(trifluoromethyl)quinazolin-4-yl]-methyl-amino]ethyl]-1,2,4-triazol-1-yl]pyridine-3-carbonitrile]
≥ 80%: percent control (mortality, anti-feedant effect or growth inhibition) at 200 ppm [1] | percent control (mortality or growth inhibition) at 200 ppm [2] | percent control (mortality, anti-feedant effect or growth inhibition) at 200 ppm [3] | percent control (mortality or growth inhibition) at 200 ppm [4]

CC(Nc1ncnc2c(Br)cc(Br)cc12)c1nccnc1-c1ncccn1 (stereo not shown) [P.38, 6,8-dibromo-N-[1-(3-pyrimidin-2-ylpyrazin-2-yl)ethyl]quinazolin-4-amine]
≥ 80%: percent control (mortality, anti-feedant effect or growth inhibition) at 200 ppm [1] | percent control (mortality or growth inhibition) at 200 ppm [2] | percent control (mortality, anti-feedant effect or growth inhibition) at 200 ppm [3] | percent control (mortality or growth inhibition) at 200 ppm [4]

CC(c1nc(Br)nn1-c1ncccn1)N(C)c1ncnc2c(Cl)cc(C(F)(F)F)cc12 (stereo not shown) [P.207, N-[1-(5-bromo-2-pyrimidin-2-yl-1,2,4-triazol-3-yl)ethyl]-8-chloro-N-methyl-6-(trifluoromethyl)quinazolin-4-amine]
≥ 80%: percent control (mortality, anti-feedant effect or growth inhibition) at 200 ppm [1] | percent control (mortality or growth inhibition) at 200 ppm [2] | percent control (mortality, anti-feedant effect or growth inhibition) at 200 ppm [3] | percent control (mortality or growth inhibition) at 200 ppm [4]

CC(c1nc(Br)nn1-c1ncccn1)N(C)c1ncnc2c(C(F)(F)F)cc(Cl)cc12 (stereo not shown) [P.205, N-[1-(5-bromo-2-pyrimidin-2-yl-1,2,4-triazol-3-yl)ethyl]-6-chloro-N-methyl-8-(trifluoromethyl)quinazolin-4-amine]
≥ 80%: percent control (mortality, anti-feedant effect or growth inhibition) at 200 ppm [1] | percent control (mortality or growth inhibition) at 200 ppm [2] | percent control (mortality, anti-feedant effect or growth inhibition) at 200 ppm [3] | percent control (mortality or growth inhibition) at 200 ppm [4]

CC(c1nc(Br)nn1-c1ncccn1)N(C)c1ncnc2c(C(F)(F)F)cc(C(F)(F)F)cc12 (stereo not shown) [P.4, N-[1-(5-bromo-2-pyrimidin-2-yl-1,2,4-triazol-3-yl)ethyl]-N-methyl-6,8-bis(trifluoromethyl)quina-zolin-4-amine]
≥ 80%: percent control (mortality, anti-feedant effect or growth inhibition) at 200 ppm [1] | percent control (mortality or growth inhibition) at 200 ppm [2] | percent control (mortality, anti-feedant effect or growth inhibition) at 200 ppm [3] | percent control (mortality or growth inhibition) at 200 ppm [4]

CC(c1nccnc1-c1ncccn1)N(CC1CC1)c1ncnc2c(Br)cc(C(F)(F)F)cc12 (stereo not shown) [P.99, 8-bromo-N-(cyclopropylmethyl)-N-[1-(3-pyrimidin-2-ylpyrazin-2-yl)ethyl]-6-(trifluoromethyl)quinazolin-4-amine]
≥ 80%: percent control (mortality, anti-feedant effect or growth inhibition) at 200 ppm [1] | percent control (mortality or growth inhibition) at 200 ppm [2] | percent control (mortality, anti-feedant effect or growth inhibition) at 200 ppm [3] | percent control (mortality or growth inhibition) at 200 ppm [4]

CC(c1ncnn1-c1ccc(F)cn1)N(C)c1ncnc2c(Cl)cc(C(F)(F)F)cc12 (stereo not shown) [P.232, 8-chloro-N-[1-[2-(5-fluoro-2-pyridyl)-1,2,4-triazol-3-yl]ethyl]-N-methyl-6-(trifluoromethyl)quinazolin-4-amine]
≥ 80%: percent control (mortality, anti-feedant effect or growth inhibition) at 200 ppm [1] | percent control (mortality or growth inhibition) at 200 ppm [2] | percent control (mortality, anti-feedant effect or growth inhibition) at 200 ppm [3] | percent control (mortality or growth inhibition) at 200 ppm [4]

C[C@@H](c1ncnn1-c1ccc(C#N)cn1)N(C)c1ccnc2c(C(F)(F)F)cc(C(F)(F)F)cc12 [P.214, 6-[5-[(1S)-1-[[6,8-bis(trifluoromethyl)-4-quinolyl]-methyl-amino]ethyl]-1,2,4-triazol-1-yl]pyridine-3-carbonitrile]
≥ 80%: percent control (mortality, anti-feedant effect or growth inhibition) at 200 ppm [1] | percent control (mortality or growth inhibition) at 200 ppm [2] | percent control (mortality, anti-feedant effect or growth inhibition) at 200 ppm [3] | percent control (mortality or growth inhibition) at 200 ppm [4]

CC(c1nccnc1-c1ncccn1)N(CC1CC1)c1ncnc2c(C(F)(F)F)cc(C(F)(F)F)cc12 (stereo not shown) [P.108, N-(cyclopropylmethyl)-N-[1-(3-pyrimidin-2-ylpyrazin-2-yl)ethyl]-6,8-bis(trifluoromethyl)quina-zolin-4-amine]
≥ 80%: percent control (mortality, anti-feedant effect or growth inhibition) at 200 ppm [1] | percent control (mortality or growth inhibition) at 200 ppm [2] | percent control (mortality, anti-feedant effect or growth inhibition) at 200 ppm [3] | percent control (mortality or growth inhibition) at 200 ppm [4]

CC(c1nccnc1-c1ccc(C#N)cn1)N(C)c1ncnc2c(C(F)(F)F)cc(C(F)(F)F)cc12 (stereo not shown) [P.116, 6-[3-[1-[[6,8-bis(trifluoromethyl)quina-zolin-4-yl]-methyl-amino]ethyl]pyrazin-2-yl]pyridine-3-carbonitrile]
≥ 80%: percent control (mortality, anti-feedant effect or growth inhibition) at 200 ppm [1] | percent control (mortality or growth inhibition) at 200 ppm [2] | percent control (mortality, anti-feedant effect or growth inhibition) at 200 ppm [3] | percent control (mortality or growth inhibition) at 200 ppm [4]

CC(c1nccnc1-n1nccn1)N(C)c1ncnc2c(Cl)cc(C(F)(F)F)cc12 (stereo not shown) [P.102, 8-chloro-N-methyl-N-[1-[3-(triazol-2-yl)pyrazin-2-yl]ethyl]-6-(trifluoromethyl)quinazolin-4-amine]
≥ 80%: percent control (mortality, anti-feedant effect or growth inhibition) at 200 ppm [1] | percent control (mortality or growth inhibition) at 200 ppm [2] | percent control (mortality, anti-feedant effect or growth inhibition) at 200 ppm [3] | percent control (mortality or growth inhibition) at 200 ppm [4]

C[C@H](Nc1ccnc2c(C(F)(F)F)cc(C(F)(F)F)cc12)c1ncnn1-c1ncccn1 [P.5, N-[(1S)-1-(2-pyrimidin-2-yl-1,2,4-triazol-3-yl)ethyl]-6,8-bis(trifluoromethyl)quinolin-4-amine]
≥ 80%: percent control (mortality, anti-feedant effect or growth inhibition) at 200 ppm [1] | percent control (mortality or growth inhibition) at 200 ppm [2] | percent control (mortality, anti-feedant effect or growth inhibition) at 200 ppm [3] | percent control (mortality or growth inhibition) at 200 ppm [4]

CC(Nc1ncnc2c(Br)cc(Cl)cc12)c1nccnc1-n1nccn1 (stereo not shown) [P.173, 8-bromo-6-chloro-N-[1-[3-(triazol-2-yl)pyrazin-2-yl]ethyl]quinazolin-4-amine]
≥ 80%: percent control (mortality, anti-feedant effect or growth inhibition) at 200 ppm [1] | percent control (mortality or growth inhibition) at 200 ppm [2] | percent control (mortality, anti-feedant effect or growth inhibition) at 200 ppm [3] | percent control (mortality or growth inhibition) at 200 ppm [4]

CC(c1ncnn1-c1ccc(Br)cn1)N(C)c1ncnc2c(C(F)(F)F)cc(Br)cc12 (stereo not shown) [P.237, 6-bromo-N-[1-[2-(5-bromo-2-pyridyl)-1,2,4-triazol-3-yl]ethyl]-N-methyl-8-(trifluoromethyl)quinazolin-4-amine]
≥ 80%: percent control (mortality, anti-feedant effect or growth inhibition) at 200 ppm [1] | percent control (mortality or growth inhibition) at 200 ppm [2] | percent control (mortality, anti-feedant effect or growth inhibition) at 200 ppm [3] | percent control (mortality or growth inhibition) at 200 ppm [4]
